{"source": "patent US20260191825A1", "about": "“CONTRACEPTIVE COMPOUNDS AND DOSING FOR THE SAME” (YourChoice Therapeutics, Inc., priority 2024, published 2026)", "key": {"CYP3A4/5": {"tested_on": "CYP3A4/5", "assay": "In vitro CYP inhibition (direct and time-dependent), CYP3A4/5", "type": "in vitro ADME", "conditions": "human", "source_text": "(§1) However, the likelihood of drug interactions is low since healthy participants who meet eligibility criteria will be enrolled in this Phase 1b/2a clinical trial. An allowance for select concomitant medications may be considered for select participants at the discretion of the investigator and/or sponsor if drug profiles are not anticipated to interact with Compound A. Such medications may include, but will not be limited to paracetamol or ibuprofen as assessed by both the PI and the Sponsor. […] Additional precautions to avoid grapefruit, pomegranates, star fruit, or Seville oranges for 7 days prior to admission, and juices and products containing these fruits for the duration of the study will be taken."}, "plasma proteins": {"tested_on": "plasma proteins", "assay": "In vitro plasma protein binding", "type": "in vitro ADME", "conditions": "1 μM, all species tested (human, monkey, mouse, rat, dog)"}, "[1]": {"assay": "Rat GLP single dose study, PK at the NOAEL", "conditions": "male, in vivo, 1000 mg/kg, single dose 1,000 mg/kg (NOAEL)"}, "healthy vasectomized men": {"tested_on": "healthy vasectomized men", "assay": "Phase 1a single ascending oral dose study, safety and tolerability", "type": "in vivo, human", "procedure": "The doses tested under fasting conditions were 10, 30, 90 and 180 mg. […] Cohort 1 first received 10 mg, and after a 5-week washout period received 30 mg. Cohort 2 received 90 mg followed by 180 mg after a 5-week washout period."}, "mammalian cell": {"tested_on": "mammalian cell", "assay": "Chromosomal aberration assay (in vitro mammalian cell assay)", "type": "cell-based", "conditions": "highest doses tested"}, "CYP2C9": {"target": "CYP2C9 (Homo sapiens, UniProt P11712)", "sequence (P11712 whole entry)": "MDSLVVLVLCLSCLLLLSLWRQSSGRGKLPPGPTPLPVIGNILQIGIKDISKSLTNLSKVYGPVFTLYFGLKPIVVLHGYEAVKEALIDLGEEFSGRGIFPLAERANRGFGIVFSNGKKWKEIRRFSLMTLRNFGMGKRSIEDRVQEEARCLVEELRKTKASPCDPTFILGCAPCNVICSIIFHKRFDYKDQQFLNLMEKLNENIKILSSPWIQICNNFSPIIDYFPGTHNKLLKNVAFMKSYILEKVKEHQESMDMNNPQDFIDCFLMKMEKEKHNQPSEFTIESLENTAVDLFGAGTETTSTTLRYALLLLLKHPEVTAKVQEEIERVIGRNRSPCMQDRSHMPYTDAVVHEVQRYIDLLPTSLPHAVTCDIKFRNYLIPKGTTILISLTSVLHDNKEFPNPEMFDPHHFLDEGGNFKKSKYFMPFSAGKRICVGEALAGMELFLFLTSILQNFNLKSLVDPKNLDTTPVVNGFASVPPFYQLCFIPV", "assay": "In vitro CYP inhibition (direct and time-dependent), CYP2C9", "type": "in vitro ADME", "source_text": "as §1"}, "sperm counts": {"tested_on": "sperm counts", "assay": "Phase 1b MAD study (Part 1), 28-day dosing, sperm counts", "type": "in vivo, human", "conditions": "men dosed for 4 weeks (28 oral doses) at doses of up to 90 mg", "source_text": "The main underlying reason provided by experts in the male contraceptive field is the dosing duration. Dosing for 28 days in men only covers approximately one third of the entire cycle from sperm production to sperm release, which takes 85 days in men (71 days for one spermatogenic cycle and 14 days for epididymal transit). […] Therefore, the dosing period will be extended from 28 days to 90 days with the anticipation that this will show the intended effect (reduction in sperm concentration).\nCohort 4 (receiving 180 mg) is currently being studied."}, "hERG": {"target": "hERG (Homo sapiens, UniProt Q12809)", "sequence (Q12809 whole entry)": "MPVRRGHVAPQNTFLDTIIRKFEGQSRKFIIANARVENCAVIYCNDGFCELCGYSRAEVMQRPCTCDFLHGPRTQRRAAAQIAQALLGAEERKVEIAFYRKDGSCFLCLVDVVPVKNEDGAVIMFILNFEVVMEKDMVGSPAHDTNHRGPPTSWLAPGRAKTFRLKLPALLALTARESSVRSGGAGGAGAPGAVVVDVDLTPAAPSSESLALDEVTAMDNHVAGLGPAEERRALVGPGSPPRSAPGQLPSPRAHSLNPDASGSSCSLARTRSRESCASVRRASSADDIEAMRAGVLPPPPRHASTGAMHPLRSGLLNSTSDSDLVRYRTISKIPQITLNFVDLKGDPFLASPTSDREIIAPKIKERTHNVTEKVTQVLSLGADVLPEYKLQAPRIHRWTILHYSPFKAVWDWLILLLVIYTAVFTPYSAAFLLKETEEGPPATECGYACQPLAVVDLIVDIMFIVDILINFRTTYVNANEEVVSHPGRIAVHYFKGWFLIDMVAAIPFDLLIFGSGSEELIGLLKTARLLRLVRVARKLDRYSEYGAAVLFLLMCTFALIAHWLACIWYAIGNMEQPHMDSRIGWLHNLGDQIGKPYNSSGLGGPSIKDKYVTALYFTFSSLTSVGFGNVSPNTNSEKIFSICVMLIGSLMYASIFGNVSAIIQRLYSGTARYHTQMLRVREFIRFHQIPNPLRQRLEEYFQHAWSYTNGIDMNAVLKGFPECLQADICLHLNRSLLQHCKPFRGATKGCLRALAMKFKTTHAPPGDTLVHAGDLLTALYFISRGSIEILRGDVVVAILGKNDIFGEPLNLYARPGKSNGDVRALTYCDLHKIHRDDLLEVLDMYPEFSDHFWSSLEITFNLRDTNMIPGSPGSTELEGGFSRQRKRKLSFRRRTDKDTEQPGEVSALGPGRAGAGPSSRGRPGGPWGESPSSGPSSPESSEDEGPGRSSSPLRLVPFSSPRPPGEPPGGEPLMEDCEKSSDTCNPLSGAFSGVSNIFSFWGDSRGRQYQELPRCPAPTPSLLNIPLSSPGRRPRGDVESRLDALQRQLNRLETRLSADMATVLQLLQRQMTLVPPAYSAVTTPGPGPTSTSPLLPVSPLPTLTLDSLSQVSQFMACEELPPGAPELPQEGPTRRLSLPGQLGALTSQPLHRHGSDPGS", "assay": "hERG GLP safety pharmacology study"}, "male rats": {"tested_on": "male rats", "assay": "Rat single dose GLP study (toxicity, sperm parameters)", "type": "in vivo", "source_text": "(§2) No efficacy was observed after single dose studies in the rat."}, "[2]": {"assay": "Rat single dose GLP study (toxicity, sperm parameters)", "type": "in vivo", "conditions": "male, in vivo; rat, single dose; highest dose tested", "source_text": "as §2"}, "male Cynomolgus macaques": {"tested_on": "male Cynomolgus macaques", "assay": "NHP repeat dose non-GLP efficacy study (sperm counts, MABEL)", "type": "in vivo, cynomolgus macaque", "procedure": "Animals and husbandry. Six (6) sexually mature, non-naïve male Cynomolgus macaques (8-15 years, 6-15 kg) were used. The animals were individually housed in a humidity- and temperature-controlled facility under a 12 h light/12 h dark diurnal cycle with two daily meals and water ad libitum. The animals were provided with cage toys and daily fresh fruits for environmental enrichment. The animals were acclimated for 2 weeks and observed twice daily to assess overall health and behavior. The animal use protocol was approved by WuXi App Tec's IACUC per the Association for Assessment and Accreditation of Laboratory Animal Care (AAALAC) guideline. The conduct of the study followed the Guidance for the Care and Use of Laboratory Animals (NRC 2011, 8th Edition), with a USDA Category C for the pain and distress level. The humane endpoints included: significant body weight drop of 20% within 7 days, severe adverse effort associated with the administration of the test article, pain and distress caused by any of the in-life procedures, and injury sustained during any time of the experiment that could impact the well-being of the animal (all determined by attending veterinarian). All animals were non-naïve and only animals that had normal hematology and serum chemistry parameters, and normal baseline sperm counts were included in the studies. After the end of the study, all animals were returned to the colony. Confounders were not controlled.\nDosing regimens. […] The formulation (Compound A in saline) was prepared freshly each day of dosing. […] Repeat dose administration: Three (3) Cohort 1 animals were dosed at 0.5 mg/kg/day (Day 1-46) followed by 1.5 mg/kg/day (Day 47-51), 2.5 mg/kg/day (Day 52-101) and 5 mg/kg/day (Day 102-108). Three (3) Cohort 2 animals were dosed at 5 mg/kg/day (Day 1-30) followed by 7.5 mg/kg/day (Day 31-37). No control animals were used in the single and repeat dose studies. Since bioavailability was assessed at time point zero in the PK study and sperm parameters were assessed at pre-dose in the efficacy studies, each animal served as its own control.\nSemen collection and sperm count/concentration assessment. Semen samples were obtained once per week or once every other week via electroejaculation during the entire repeat dose study periods from all 3 animals per Cohort to assess sperm concentration and count. Samples were left at room temperature for 30 min to allow for liquefication. Liquefied semen was diluted with 3% NaCl solution for manual sperm count assessment using a hemocytometer. All samples were analyzed in triplicates. Sperm concentration per ejaculate was calculated with the following formula: Sperm concentration=Sperm count×104×Dilution factor. No data point was excluded from the analysis.\nTesticular biopsy collection and histology. Testicular biopsies (2 per animal; one from the right and one from the left testicle) were taken 24 h after administering the last dose and on the last day of the recovery period from all 3 animals per Cohort to assess morphological changes. Preoperative care of animals consisted of food restriction and general examination. All surgical procedures were conducted using aseptic techniques and comprehensive physiologic monitoring. The animals were anesthetized with Zoletil 50 (5 mg/kg) by intramuscular (i.m.) injection. The scrotum was disinfected with iodine and 75% alcohol, and lidocaine (1%) was administered intradermally at the biopsy needle insertion site. Core biopsies (one per testis) were collected with a 16 G TSK starcut biopsy needle. Immediately after biopsy collection, animals received Meloxicam (0.2 mg/kg) and Ketorolac (10 mg) for pain relief, and Ceftriaxone sodium (0.5 g) as […] (all via i.m. injection). Meloxicam was given once daily for 3 consecutive days, Ketorolac twice daily for 2 days, and Ceftriaxone sodium once daily for 4 days post-collection. […]"}}, "note": "Values joined by “and” are separate entries in the source; they are usually repeats but may differ in a detail not shown here. Identical values can stand only once. “Also recorded” adds a separate entry of the source.", "data": [{"compound": "Cc1ccc(C2=CC(C)(C)Oc3ccc(-c4ccc(-c5ccc(C(=O)O)cc5)[nH]4)cc32)cc1", "note": "[Compound A]", "values": [{"measurement": "IC50", "setting": "CYP3A4/5; CYP3A4/5, midazolam as substrate", "value": 58.6, "unit": "µM"}, {"measurement": "IC50", "setting": "CYP3A4/5; CYP3A4/5, testosterone as substrate", "value": 53.6, "unit": "µM"}, {"measurement": "Binding to plasma proteins", "setting": "plasma proteins", "value": "at least 99.99%"}, {"measurement": "AUC(0-t)", "setting": "[1]; Day 1, mean, read-out: AUC0-24", "value": 560, "unit": "µg·h/mL"}, {"measurement": "Tmax", "setting": "[1]; Day 1, median", "value": 48, "unit": "h"}, {"measurement": "half-life", "setting": "[1]; Day 1, median, calculated from only 2 animals", "value": 16.9, "unit": "h"}, {"measurement": "Cmax", "setting": "[1]; Day 1, n = 20, mean", "value": 45100, "unit": "ng/mL"}, {"measurement": "Adverse event possibly related to study treatment", "setting": "healthy vasectomized men; after the 30 mg dose", "value": "decreased sex drive in 1 participant"}, {"measurement": "Adverse event possibly related to study treatment", "setting": "healthy vasectomized men; after the 180 mg dose, Holter monitoring, 1 participant", "value": "asymptomatic cardiac arrhythmia of low clinical concern"}, {"measurement": "Serious adverse events (SAEs)", "setting": "healthy vasectomized men; single doses 10, 30, 90, 180 mg, fasting", "value": "no serious adverse events"}, {"measurement": "Adverse events classified as possibly related to study treatment (number)", "setting": "healthy vasectomized men; single doses 10-180 mg", "value": "two"}, {"measurement": "Safety and tolerability", "setting": "healthy vasectomized men; single doses up to 180 mg, fasted state, healthy volunteers", "value": "safe and well tolerated"}, {"measurement": "Genotoxicity: chromosomal aberration", "setting": "mammalian cell", "value": "not genotoxic; also recorded: no genotoxic potential; also recorded: Clean"}, {"measurement": "IC50", "setting": "CYP2C9; CYP2C9", "value": 14.6, "unit": "µM"}, {"measurement": "Time-dependent inhibition (TDI)", "setting": "CYP2C9; CYP2C9, 0.3 to 100 μM", "value": "no TDI potential"}, {"measurement": "Effect on sperm counts", "setting": "sperm counts", "value": "not sufficient to decrease sperm counts; also recorded: firm evidence of sperm reduction has not been observed; also recorded: have not been replicated"}, {"measurement": "Main outcomes: hERG", "setting": "hERG", "value": "Clean"}, {"measurement": "Tolerated single dose (highest dose tested)", "setting": "male rats; male rats, GLP study", "value": "1,000 mg/kg"}, {"measurement": "Human dose 60 kg, safety factor 10", "setting": "male rats; male, rat, in vivo, 15 days", "value": 967.74, "unit": "mg"}, {"measurement": "HED", "setting": "male rats; rat, single dose 1,000 mg/kg", "value": "161.3 mg/kg and 161.29 mg/kg"}, {"measurement": "Impact on sperm parameters after single dose", "setting": "male rats; rats, single doses as high as 1,000 mg/kg, Day 15 post dose", "value": "no impact on sperm parameters"}, {"measurement": "NOAEL at 15 days", "setting": "[2]", "value": 1000, "unit": "mg/kg"}, {"measurement": "HED (based on BSA) of MABEL", "setting": "male Cynomolgus macaques; NHP", "value": 0.8, "unit": "mg/kg"}, {"measurement": "HED for 60 kg BW of MABEL", "setting": "male Cynomolgus macaques; NHP", "value": 48, "unit": "mg"}, {"measurement": "HED for 80 kg BW of MABEL", "setting": "male Cynomolgus macaques; NHP", "value": 64, "unit": "mg"}, {"measurement": "MABEL", "setting": "male Cynomolgus macaques; NHP, 49-day repeat dose non-GLP", "value": 2.5, "unit": "mg/kg/day"}, {"measurement": "Lowest dose with decreases in sperm counts", "setting": "male Cynomolgus macaques; NHP, repeat dose for 7 weeks", "value": 2.5, "unit": "mg/kg/day"}, {"measurement": "Reversibility of antispermatogenic effect", "setting": "male Cynomolgus macaques; NHPs", "value": "1.5-3.5 spermatogenic cycles"}]}]}
